Activity calls are given as the source filed them. The rule behind the calls is not given here.
How the values were obtained:
[1] = Acute ulcerogenic activity in Sprague-Dawley male rat assessed as abnormal structure of the gastric layer by measuring inflammatory cells infiltration in lamina propria at 50 mg/kg/day, po administered for 3 days by hematoxylin and eosin staining method; format: toxicity, organism-based, Stomach; details: in vivo, 72 h, time 3 day
[2] = Acute ulcerogenic activity in Sprague-Dawley male rat assessed as ulcer index at 50 mg/kg/day, po administered for 3 days; format: toxicity, organism-based; details: in vivo, 72 h, time 3 day
[3] = tested on: Rattus norvegicus; assay: Antiinflammatory activity against carrageenan-induced paw edema Sprague-Dawley rat model assessed as inhibition of paw edema by measuring edema thickness at 50 mg/kg, po measured after 3 hrs (reference value: 1.41 +/- 0.13 mm); format: functional
[4] = Acute ulcerogenic activity in Sprague-Dawley male rat assessed as incidence of ulcer/10 animal at 50 mg/kg/day, po administered for 3 days; format: toxicity, organism-based; details: in vivo, 72 h, time 3 day
[5] = tested on: Rattus norvegicus; assay: Antiinflammatory activity against carrageenan-induced paw edema Sprague-Dawley rat model assessed as inhibition of paw edema by measuring edema thickness at 50 mg/kg, po measured after 1 hr (reference value: 0.71 +/- 0.03 mm); format: functional
[6] = Acute ulcerogenic activity in Sprague-Dawley male rat assessed as abnormal structure of the gastric layer by measuring infiltration of macrophages in lamina propria at 50 mg/kg/day, po administered for 3 days by hematoxylin and eosin staining method; format: toxicity, organism-based, Stomach; details: in vivo, 72 h, time 3 day
[7] = tested on: Rattus norvegicus; assay: Antiinflammatory activity against carrageenan-induced paw edema Sprague-Dawley rat model assessed as inhibition of paw edema by measuring edema thickness at 50 mg/kg, po measured after 5 hrs (reference value: 1.39 +/- 0.11 mm); format: functional
[8] = Acute ulcerogenic activity in Sprague-Dawley male rat assessed as abnormal structure of the gastric layer by measuring infiltration of lymphocytes in submucosa at 50 mg/kg/day, po administered for 3 days by hematoxylin and eosin staining method; format: toxicity, organism-based, Stomach; details: in vivo, 72 h, time 3 day
[9] = Acute ulcerogenic activity in Sprague-Dawley male rat assessed as abnormal structure of the gastric layer by measuring infiltration of lymphocytes in lamina propria at 50 mg/kg/day, po administered for 3 days by hematoxylin and eosin staining method; format: toxicity, organism-based, Stomach; details: in vivo, 72 h, time 3 day
[10] = tested on: Rattus norvegicus; assay: Antiinflammatory activity against carrageenan-induced paw edema Sprague-Dawley rat model assessed as inhibition of inflammation at 50 mg/kg, po after 1 hr relative to control; format: functional; parameters: scale not given: the % may be the effect or the level left
[11] = Acute ulcerogenic activity in Sprague-Dawley male rat assessed as abnormal structure of the gastric layer by measuring deeply congested blood vessels and aggregated of inflammatory cells at 50 mg/kg/day, po administered for 3 days by hematoxylin and eosin staining method; format: toxicity, organism-based, Stomach; details: in vivo, 72 h, time 3 day
[12] = Acute ulcerogenic activity in Sprague-Dawley male rat assessed as average number of ulcers at 50 mg/kg/day, po administered for 3 days; format: toxicity, organism-based; details: in vivo, 72 h, time 3 day
[13] = Acute ulcerogenic activity in Sprague-Dawley male rat assessed as abnormal structure of the gastric layer by measuring infiltration of macrophages in submucosa at 50 mg/kg/day, po administered for 3 days by hematoxylin and eosin staining method; format: toxicity, organism-based, Stomach; details: in vivo, 72 h, time 3 day
[14] = Acute ulcerogenic activity in Sprague-Dawley male rat assessed as average severity of ulcers at 50 mg/kg/day, po administered for 3 days; format: toxicity, organism-based; details: in vivo, 72 h, time 3 day
[15] = Acute ulcerogenic activity in Sprague-Dawley male rat assessed as abnormal structure of the gastric layer by measuring glandular hyperactivation in submucosa at 50 mg/kg/day, po administered for 3 days by hematoxylin and eosin staining method; format: toxicity, organism-based, Stomach; details: in vivo, 72 h, time 3 day
[16] = tested on: HT-29; assay: Cytotoxicity against human HT-29 cells assessed as inhibition in cell growth incubated for 72 hrs by MTT assay; format: functional, cell-based; details: HT-29, 72 h
[17] = Cytotoxicity against human MRC5 cells assessed as inhibition in cell growth incubated for 72 hrs by MTT assay; format: toxicity, cell-based
[18] = Selectivity index, ratio of IC50 for cytotoxicity against human MRC5 cells to IC50 for cytotoxicity against human HT-29 cells; details: MRC5 cells versus HT-29 cells
[19] = tested on: MCF7; assay: Cytotoxicity against human MCF7 cells assessed as inhibition in cell growth incubated for 72 hrs by MTT assay; format: functional, cell-based; details: MCF7, 72 h
[20] = tested on: A2780; assay: Cytotoxicity against human A2780 cells assessed as inhibition in cell growth incubated for 72 hrs by MTT assay; format: functional, cell-based; details: A2780, 72 h
[21] = Selectivity index, ratio of IC50 for cytotoxicity against human MRC5 cells to IC50 for cytotoxicity against human A2780 cells; details: MRC5 cells versus A2780 cells
[22] = Selectivity index, ratio of IC50 for cytotoxicity against human MRC5 cells to IC50 for cytotoxicity against human MCF7 cells; details: MRC5 cells versus MCF7 cells
[23] = tested on: Rattus norvegicus; assay: Antiinflammatory activity against carrageenan-induced paw edema Sprague-Dawley rat model assessed as inhibition of inflammation at 50 mg/kg, po after 3 hrs relative to control; format: functional; parameters: scale not given: the % may be the effect or the level left
[24] = molecular target: T1, Prostaglandin G/H synthase 1 (Ovis aries, UniProt P05979); assay: Inhibition of ovine COX-1
T1 sequence (P05979 whole entry): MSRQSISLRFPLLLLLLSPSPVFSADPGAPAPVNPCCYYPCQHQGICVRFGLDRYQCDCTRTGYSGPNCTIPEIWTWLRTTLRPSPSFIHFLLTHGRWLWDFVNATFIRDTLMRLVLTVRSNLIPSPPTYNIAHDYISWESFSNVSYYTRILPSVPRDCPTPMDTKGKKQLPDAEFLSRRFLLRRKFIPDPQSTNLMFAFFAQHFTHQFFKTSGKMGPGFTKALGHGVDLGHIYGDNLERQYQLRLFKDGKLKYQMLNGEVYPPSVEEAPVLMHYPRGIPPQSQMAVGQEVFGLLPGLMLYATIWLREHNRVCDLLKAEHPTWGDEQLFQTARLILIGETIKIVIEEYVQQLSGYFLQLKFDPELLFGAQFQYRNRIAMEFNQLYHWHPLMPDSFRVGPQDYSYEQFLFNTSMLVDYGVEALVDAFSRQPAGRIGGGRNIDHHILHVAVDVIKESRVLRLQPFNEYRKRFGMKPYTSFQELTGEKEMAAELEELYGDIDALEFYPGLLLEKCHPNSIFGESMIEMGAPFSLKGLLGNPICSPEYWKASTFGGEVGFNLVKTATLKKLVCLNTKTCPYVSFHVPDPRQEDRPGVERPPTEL

[25] = tested on: Rattus norvegicus; assay: Antiinflammatory activity against carrageenan-induced paw edema Sprague-Dawley rat model assessed as inhibition of inflammation at 50 mg/kg, po after 5 hrs relative to control; format: functional; parameters: scale not given: the % may be the effect or the level left
[26] = tested on: PC-3; assay: Cytotoxicity against human PC-3 cells assessed as inhibition in cell growth; format: functional, cell-based
[27] = tested on: HCT-116; assay: Cytotoxicity against human HCT-116 cells assessed as inhibition in cell growth; format: functional, cell-based
[28] = tested on: MCF7; assay: Cytotoxicity against human MCF7 cells assessed as inhibition in cell growth; format: functional, cell-based
[29] = tested on: HepG2; assay: Cytotoxicity against human HepG2 cells assessed as inhibition in cell growth; format: functional, cell-based
[30] = organism: Sus scrofa; assay: Induction of porcine brain tubulin polymerization at 3 uM by fluorescence-based tubulin polymerization assay
[31] = tested on: THP-1; assay: Cytotoxicity against human THP-1 cells assessed as inhibition in cell growth; format: functional, cell-based

Row | SMILES | IC50 [16] | IC50 at 72 h [17] | selectivity ratio at 72 h [18] | IC50 [19] | IC50 [20] | selectivity ratio at 72 h [21] | selectivity ratio at 72 h [22] | further results
1 | COc1ccc2c(c1)c(CC(=O)O)c(C)n2C(=O)c1ccc(Cl)cc1 [INDOMETHACIN] | – | – | – | – | – | – | – | Activity [1]: Toxic; UI [2]: 22.33; Activity [3]: 0.22 mm; Activity [4]: 10%; Activity [5]: 0.41 mm; Activity [6]: Toxic; Activity [7]: 0.24 mm; Activity [8]: Toxic; Activity [9]: Toxic; Activity [10]: 42.25%; Activity [11]: Toxic; Activity [12]: 11.33; Activity [13]: Toxic; Activity [14]: 1; Activity [15]: Toxic
2 | COc1ccc(NC(=O)COc2ccc(N3C(=O)CSC3c3ccccc3)cc2)cc1OC (stereo not given) | 2150 nM | 7370 nM | 3.43 | 1760 nM | 1280 nM | 5.76 | 4.19 | –
3 | COc1cc2c(c(OC)c1OC)-c1ccc(OC)c(=O)cc1[C@@H](NC(C)=O)CC2 [COLCHICINE] | 5190 nM | – | – | – | 23 nM | – | – | –
4 | COc1cccc2c1C(=O)c1c(O)c3c(c(O)c1C2=O)C[C@@](O)(C(=O)CO)C[C@@H]3O[C@H]1C[C@H](N)[C@H](O)[C@H](C)O1 [DOXORUBICIN] | 1500 nM | 2500 nM | – | – | 5120 nM | – | – | –
5 | COc1ccc(NC(=O)COc2ccc(N3C(=O)CSC3c3ccc(C)cc3)cc2)cc1 (stereo not given) | 5340 nM | 2890 nM | 0.54 | 2470 nM | 4700 nM | 0.61 | 1.17 | Activity [23]: 32.7%; Activity [3]: 0.79 mm; Activity [5]: 0.61 mm; Activity [7]: 0.73 mm; IC50 [24]: 8370 nM; Activity [10]: 15.3%; Activity [25]: 47.48%
6 | CC(=O)c1ccc(NC(=O)COc2ccc(C3SCC(=O)N3c3ccccc3)cc2)cc1 (stereo not given) | – | – | – | – | – | – | – | IC50 [26]: 18200 nM; IC50 [27]: 18200 nM; IC50 [28]: 18200 nM; IC50 [29]: 18200 nM
7 | CC(=O)O[C@H]1C(=O)[C@@]2(C)[C@H]([C@H](OC(=O)c3ccccc3)[C@]3(O)C[C@H](OC(=O)[C@H](O)[C@@H](NC(=O)c4ccccc4)c4ccccc4)C(C)=C1C3(C)C)[C@]1(OC(C)=O)CO[C@@H]1C[C@@H]2O | – | – | – | – | – | – | – | Activity [30]: Active
8 | O=C(COc1ccc(N2C(=O)CSC2c2ccccc2)cc1)Nc1ccc(Cl)cc1 (stereo not given) | 3530 nM | 10600 nM | 3.02 | 5960 nM | 17000 nM | 0.63 | 1.79 | Activity [23]: 32.7%; Activity [3]: 0.63 mm; Activity [5]: 0.54 mm; Activity [7]: 0.53 mm; IC50 [24]: 36500 nM; Activity [10]: 15.3%; Activity [25]: 47.48%
9 | O=C(COc1ccc(N2C(=O)CSC2c2ccccc2)cc1)Nc1ccc(F)cc1 (stereo not given) | 5130 nM | 13500 nM | 2.62 | 2750 nM | 5320 nM | 2.53 | 4.89 | –
10 | Cc1ccc(C2SCC(=O)N2c2ccc(OCC(=O)Nc3ccccc3)cc2)cc1 (stereo not given) | 1130 nM | 890 nM | 0.79 | 1150 nM | 2810 nM | 0.32 | 0.77 | –
11 | COc1cc(NC(=O)COc2ccc(N3C(=O)CSC3c3ccccc3)cc2)cc(OC)c1OC (stereo not given) | 3210 nM | 9380 nM | 2.92 | 2270 nM | 2000 nM | 4.69 | 4.13 | –
12 | O=C(COc1ccc(N2C(=O)CSC2c2ccccc2)cc1)Nc1ccccc1 (stereo not given) | 4810 nM | 3690 nM | 0.77 | 2390 nM | 7070 nM | 0.52 | 1.54 | –
13 | O=C(COc1ccc(N2C(=O)CSC2c2ccc(Cl)cc2)cc1)Nc1ccccc1 (stereo not given) | 440 nM | 1480 nM | 3.36 | 1310 nM | 2600 nM | 0.57 | 1.13 | –
14 | Cc1ccc(NC(=O)COc2ccc(N3C(=O)CSC3c3ccccc3)cc2)cc1 (stereo not given) | 2110 nM | 2850 nM | 1.35 | 1790 nM | 1630 nM | 1.75 | 1.59 | Activity [23]: 32.7%; Activity [3]: 0.67 mm; Activity [5]: 0.57 mm; Activity [7]: 0.69 mm; IC50 [24]: 4550 nM; Activity [10]: 15.3%; Activity [25]: 47.48%
15 | O=C(COc1ccc(N2C(=O)CSC2c2ccc(Cl)cc2)cc1)Nc1ccc(F)cc1 (stereo not given) | 640 nM | 8720 nM | 13.6 | 1460 nM | 11000 nM | 0.79 | 5.97 | –
16 | Cc1ccc(NC(=O)COc2ccc(N3C(=O)CSC3c3ccc(C)cc3)cc2)cc1 (stereo not given) | 700 nM | 3110 nM | 4.44 | 1330 nM | 2820 nM | 1.1 | 2.34 | –
17 | O=C(COc1ccc(N2C(=O)CSC2c2ccc(Cl)cc2)cc1)Nc1ccc(Cl)cc1 (stereo not given) | 1320 nM | 6600 nM | 5 | 2330 nM | 7840 nM | 0.84 | 2.83 | –
18 | COc1ccc(N2C(=O)CSC2c2cc(OC)c(OC)c(OC)c2)cc1 (stereo not given) | – | – | – | – | – | – | – | IC50 [31]: 1210 nM
19 | COc1ccc(NC(=O)COc2ccc(N3C(=O)CSC3c3ccc(Cl)cc3)cc2)cc1 (stereo not given) | 780 nM | 1000 nM | 1.28 | 1240 nM | 1280 nM | 0.78 | 0.81 | –
20 | Cc1ccc(NC(=O)COc2ccc(N3C(=O)CSC3c3ccc(Cl)cc3)cc2)cc1 (stereo not given) | 890 nM | 3180 nM | 3.57 | 2080 nM | 1640 nM | 1.94 | 1.53 | –

From ChEMBL document CHEMBL5625227, “Discovery and optimization of 2,3-diaryl-1,3-thiazolidin-4-one-based derivatives as potent and selective cytotoxic agents with anti-inflammatory activity” (Eur J Med Chem, 2023)
